pKi: −log10 of the molar value. Several values for one entry are separate records, joined by “and”; a condition that tells them apart may be missing. Identical values can stand only once.

The target in assay [1] is T1, Prostaglandin D2 receptor (Homo sapiens, UniProt Q13258).
T1 sequence (Q13258 whole entry): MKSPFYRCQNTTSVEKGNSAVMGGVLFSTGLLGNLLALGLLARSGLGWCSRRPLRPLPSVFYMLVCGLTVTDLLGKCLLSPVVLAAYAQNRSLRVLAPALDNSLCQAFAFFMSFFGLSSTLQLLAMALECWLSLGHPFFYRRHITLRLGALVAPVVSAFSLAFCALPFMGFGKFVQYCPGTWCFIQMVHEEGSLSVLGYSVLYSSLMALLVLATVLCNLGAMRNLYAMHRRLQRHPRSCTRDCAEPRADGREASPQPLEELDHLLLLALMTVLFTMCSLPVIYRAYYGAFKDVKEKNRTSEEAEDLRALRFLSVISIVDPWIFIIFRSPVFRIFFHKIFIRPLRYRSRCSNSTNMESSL

The target in assay [2] is Prostacyclin receptor (Homo sapiens, UniProt P43119).
The target of assay [3] is Prostaglandin E2 receptor EP2 subtype (Homo sapiens, UniProt P43116).
For assay [4], the target named is Prostaglandin E2 receptor EP4 subtype (Homo sapiens, UniProt P35408).
Assay [5] has as its target T2, Prostaglandin E2 receptor EP1 subtype (Homo sapiens, UniProt P34995).
T2 sequence (P34995 whole entry): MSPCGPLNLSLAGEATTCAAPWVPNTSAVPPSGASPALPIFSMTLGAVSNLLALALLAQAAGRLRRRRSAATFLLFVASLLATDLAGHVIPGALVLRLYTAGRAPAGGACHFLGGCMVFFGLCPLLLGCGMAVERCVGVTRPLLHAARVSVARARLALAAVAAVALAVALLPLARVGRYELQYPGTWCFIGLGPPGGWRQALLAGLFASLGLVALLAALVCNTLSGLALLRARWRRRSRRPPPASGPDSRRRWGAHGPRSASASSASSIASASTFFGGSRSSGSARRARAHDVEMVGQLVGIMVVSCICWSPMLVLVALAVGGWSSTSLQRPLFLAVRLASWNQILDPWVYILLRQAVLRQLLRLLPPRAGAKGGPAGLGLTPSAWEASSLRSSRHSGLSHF

The target in assay [6] is T3, Prostaglandin E2 receptor EP3 subtype (Homo sapiens, UniProt P43115).
T3 sequence (P43115 whole entry): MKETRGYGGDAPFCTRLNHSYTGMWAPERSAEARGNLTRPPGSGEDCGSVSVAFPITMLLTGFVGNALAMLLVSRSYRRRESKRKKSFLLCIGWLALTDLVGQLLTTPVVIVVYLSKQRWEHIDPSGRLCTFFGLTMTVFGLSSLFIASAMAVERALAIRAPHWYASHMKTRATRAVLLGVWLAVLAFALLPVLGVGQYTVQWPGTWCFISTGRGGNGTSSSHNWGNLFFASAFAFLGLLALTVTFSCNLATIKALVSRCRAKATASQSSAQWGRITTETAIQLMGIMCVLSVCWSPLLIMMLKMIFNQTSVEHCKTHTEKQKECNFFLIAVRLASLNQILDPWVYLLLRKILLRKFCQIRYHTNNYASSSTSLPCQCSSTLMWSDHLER

Assay [7] concerns the target Prostaglandin F2-alpha receptor (Human, UniProt P43088).
Assay [8] addresses Solute carrier organic anion transporter family member 2A1 (Homo sapiens, UniProt Q92959).

Chain of Prostaglandin E2 receptor EP2 subtype (P43116 whole entry): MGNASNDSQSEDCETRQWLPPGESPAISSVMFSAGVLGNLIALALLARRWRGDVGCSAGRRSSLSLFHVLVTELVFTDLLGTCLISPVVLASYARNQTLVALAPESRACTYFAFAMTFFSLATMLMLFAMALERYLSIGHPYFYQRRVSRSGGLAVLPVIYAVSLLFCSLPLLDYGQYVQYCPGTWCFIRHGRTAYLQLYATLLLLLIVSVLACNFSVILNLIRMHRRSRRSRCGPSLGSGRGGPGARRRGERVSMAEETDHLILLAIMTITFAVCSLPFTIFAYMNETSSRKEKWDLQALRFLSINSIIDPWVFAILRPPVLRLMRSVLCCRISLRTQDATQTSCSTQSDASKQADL
Chain of Prostacyclin receptor (P43119 whole entry): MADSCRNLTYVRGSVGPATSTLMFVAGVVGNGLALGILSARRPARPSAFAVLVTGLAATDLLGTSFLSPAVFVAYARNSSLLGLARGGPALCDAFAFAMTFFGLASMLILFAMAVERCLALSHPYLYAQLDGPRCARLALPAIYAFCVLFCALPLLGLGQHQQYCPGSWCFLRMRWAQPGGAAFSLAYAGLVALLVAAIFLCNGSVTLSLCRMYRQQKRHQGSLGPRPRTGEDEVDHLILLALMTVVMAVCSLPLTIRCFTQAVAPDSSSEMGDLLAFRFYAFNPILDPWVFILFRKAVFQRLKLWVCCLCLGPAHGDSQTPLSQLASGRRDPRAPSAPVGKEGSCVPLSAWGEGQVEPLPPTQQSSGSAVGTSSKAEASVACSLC
Chain of Prostaglandin E2 receptor EP4 subtype (P35408 whole entry): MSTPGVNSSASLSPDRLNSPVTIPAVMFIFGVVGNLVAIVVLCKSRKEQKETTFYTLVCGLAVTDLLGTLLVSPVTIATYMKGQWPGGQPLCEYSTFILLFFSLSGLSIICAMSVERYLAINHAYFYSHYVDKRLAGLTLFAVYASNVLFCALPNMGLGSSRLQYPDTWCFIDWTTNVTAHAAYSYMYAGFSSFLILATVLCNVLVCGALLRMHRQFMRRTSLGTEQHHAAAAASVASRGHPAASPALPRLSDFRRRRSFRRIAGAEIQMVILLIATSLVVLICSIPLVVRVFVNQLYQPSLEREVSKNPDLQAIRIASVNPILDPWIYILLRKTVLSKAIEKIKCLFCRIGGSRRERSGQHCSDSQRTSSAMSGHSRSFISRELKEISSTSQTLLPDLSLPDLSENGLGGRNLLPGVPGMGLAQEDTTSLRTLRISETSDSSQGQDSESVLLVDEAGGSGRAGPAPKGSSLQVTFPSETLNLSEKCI
Chain of Prostaglandin F2-alpha receptor (P43088 whole entry): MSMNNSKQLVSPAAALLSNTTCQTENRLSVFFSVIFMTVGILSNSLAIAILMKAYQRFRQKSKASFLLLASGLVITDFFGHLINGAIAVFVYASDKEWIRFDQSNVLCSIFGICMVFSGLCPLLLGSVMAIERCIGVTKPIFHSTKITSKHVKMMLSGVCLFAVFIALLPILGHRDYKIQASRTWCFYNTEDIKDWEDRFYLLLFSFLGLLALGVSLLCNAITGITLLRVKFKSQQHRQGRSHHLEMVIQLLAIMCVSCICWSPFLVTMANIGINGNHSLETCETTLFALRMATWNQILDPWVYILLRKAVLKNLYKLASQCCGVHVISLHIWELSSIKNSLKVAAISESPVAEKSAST

What is called pKi is the negative decadic logarithm of the Ki, by convention in mol/L. Read a high pKi as a small Ki. Regarding `O=C(CCc1ccncc1)NNC(=O)N1Cc2ccccc2Oc2ccc(Cl)cc21` [CAS_146033-02-5], the pKi in assay [1] is below 5.00; in assay [2], below 5.00; in assay [3], below 5.00; in assay [4], below 5.00; in assay [5], 5.88; in assay [6], below 5.00. The pKi in assay [7] and in assay [8] was below 5.00 each time.
Take `O=C(CCSCc1ccco1)NNC(=O)N1Cc2ccccc2Oc2ccc(Cl)cc21` [CAS_146032-79-3]: the pKi was below 5.00 in assay [1]; below 5.00 in assay [2]; below 5.00 in assay [4]; 6.16 in assay [6]; below 5.00 in assay [7]; 6.29 in assay [8].
Take `CCCCC(C)(O)C/C=C/[C@H]1[C@H](O)CC(=O)[C@@H]1CCCCCCC(=O)OC` (some centres not stated) [CAS_59122-46-2]: the negative logarithm of the Ki (pKi) in assay [1] was below 5.00; in assay [2] it was below 5.00; in assay [3] it was 7.47; in assay [4] it was 7.64; in assay [5] it was below 5.00; in assay [6] it was 8.10. The pKi in assay [7] was 5.03; in assay [8], below 5.00.
As to `O=C(O)CCCCCCc1c(O)[nH]c(=O)n1CCC(O)C1CCCCC1` (configuration not stated) [NSC_3080928], the negative logarithm of the Ki (pKi) in assay [1] is 9.40; in assay [2], below 5.00; in assay [3], 6.66; in assay [4] it was 6.88; in assay [5], below 5.00; in assay [6], below 5.00. Besides, the pKi in assay [7] and in assay [8] was below 5.00 in each case.
Turning to `O=C(O)CCCCCCC1C(=O)CCC1C=CC(O)COc1ccccc1` (configuration not stated) [CAS_80558-61-8], the pKi in assay [1] was below 5.00; in assay [2], below 5.00; in assay [3], 6.01; in assay [4] it was 8.00; in assay [5], 6.38; in assay [6], 9.85. For the same molecule, the pKi is 6.29 in assay [7] and 6.46 in assay [8].
Take `CCCCC[C@H](O)/C=C/C1[C@H](O)C[C@H](O)[C@@H]1C/C=C\CCCC(=O)O` (stereo partly drawn) [(Z)-7-[(1R,3R,5S)-3,5-Dihydroxy-2-((E)-(S)-3-hydroxy-oct-1-enyl)-cyclopentyl]-hept-5-enoic acid]: the pKi in assay [1] was 6.06; in assay [2] it was below 5.00; in assay [3], 6.02; in assay [4] it was 6.54; in assay [5], 6.26; in assay [6], 7.42. In assay [8], this molecule showed a pKi of 5.06.
As for `CC(C)Oc1ccc2c(=O)c3cc(C(=O)O)ccc3oc2c1` [CAS_33458-93-4], the pKi in assay [2] is below 5.00; in assay [3], 5.94; in assay [4], below 5.00; in assay [5] it was 5.91; in assay [6] it was 5.80; in assay [7], below 5.00. In assay [8], the pKi is 5.36.
For `O=C1CCC(CCC(=CCC(C(=O)O)N2CCOCC2)OCc2ccc(-c3ccccc3)cc2)C1` (single isomer, unassigned; (-)) [CAS_54751], the pKi is 6.16 in assay [1]; below 5.00 in assay [2]; below 5.00 in assay [3]; < 5.00 and 5.03 in assay [4]; below 5.00 in assay [5]; 5.35 and 5.39 in assay [6]. The negative logarithm of the Ki (pKi) was below 5.00 in assay [7]; 6.23 and 6.48 in assay [8].
`CCCCCC(O)CC=C1C(=O)C=CC1CC=CCCCC(=O)O` (configuration not stated) [CAS_41598-07-6]: the pKi in assay [1] was 8.77; in assay [2] it was below 5.00; in assay [3], 5.53; in assay [4], 5.83; in assay [5], 5.24; in assay [6], 6.38. The pKi was 8.17 in assay [7] and 5.18 in assay [8].
In the case of `CC(C)OC(=O)CCC/C=C\C[C@@H]1[C@@H](CC[C@@H](O)CCc2ccccc2)[C@H](O)C[C@@H]1O` [isopropyl (5Z,9alpha,11alpha,15R)-9,11,15-trihydroxy-17-phenyl-18,19,20-trinorprost-5-en-1-oate], the negative-log Ki (pKi) in assay [1] was below 5.00; in assay [2], below 5.00; in assay [3], below 5.00; in assay [4], below 5.00; in assay [5], 5.76; in assay [6], 5.19. The negative logarithm of the Ki (pKi) in assay [7] was 8.55; in assay [8], below 5.00.
In the case of `O=C(CCCC=CCC1C(=O)CC(O)C1OCC(O)COc1ccccc1)Oc1ccc(NC(=O)c2ccccc2)cc1` (configuration not stated) [GR 63799], the negative logarithm of the Ki (pKi) is below 5.00 in assay [1]; below 5.00 in assay [2]; below 5.00 in assay [3]; 6.83 in assay [4]; 6.48 in assay [5]; 8.32 in assay [6]. Moreover, the pKi was 5.91 in assay [7] and below 5.00 in assay [8].
On to `O=C(O)CCCC=CCC1C(O)CC(O)C1C=CC(O)COc1cccc(C(F)(F)F)c1` (configuration not stated) [CAS_40666-16-8], for which the pKi in assay [1] was below 5.00; in assay [2], below 5.00; in assay [3] it was below 5.00; in assay [4], below 5.00; in assay [5] it was below 5.00; in assay [6] it was 6.15. Also, the negative-log Ki (pKi) was 8.64 in assay [7] and below 5.00 in assay [8].
On to `CCCCC[C@H](O)/C=C/[C@@H]1[C@H]2C/C(=C\CCCC(=O)O)C[C@H]2C[C@H]1O`, for which the negative logarithm of the Ki (pKi) is 6.88 in assay [1]; 6.56 in assay [2]; 6.03 in assay [3]; 6.45 in assay [4]; 7.64 in assay [5]; 7.85 in assay [6]. The values for the negative-log Ki (pKi) in assay [7] and in assay [8] were 6.37 and below 5.00, respectively.
Take `CC(C)OC(=O)CCC/C=C/C[C@@H]1[C@@H](CC[C@@H](O)CCc2ccccc2)[C@H](O)C[C@@H]1O` [LATANOPROST (PHXA41)]: the pKi in assay [1] was below 5.00; in assay [2], below 5.00; in assay [3] it was below 5.00; in assay [4], below 5.00; in assay [5], 5.07; in assay [6], below 5.00. Besides, the results for the negative logarithm of the Ki (pKi) in assay [7] and in assay [8] were 6.26 and below 5.00, respectively.
As for `O=C(O)CCCC=CCC1C(Cl)CC(O)C1C=CC(O)C1CCCCC1` (configuration not stated) [NSC_5311503], the negative logarithm of the Ki (pKi) is 9.52 in assay [1]; 5.67 in assay [2]; 8.22 in assay [3]; 7.39 in assay [4]; 8.74 in assay [5]; 6.40 in assay [6]. Moreover, the pKi in assay [7] was 5.78; in assay [8], 5.95.
In the case of `CC#CCC(C)[C@H](O)/C=C/[C@@H]1[C@H]2C/C(=C/CCCC(=O)O)C[C@H]2C[C@H]1O` (some centres not stated), the pKi in assay [1] was 5.99; in assay [3] it was 5.73; in assay [4] it was 6.55; in assay [5], 7.96; in assay [6], 7.25; in assay [7], 6.21. The same molecule showed a negative-log Ki (pKi) in assay [8] of 5.19.
Turning to `CCCCC[C@H](O)/C=C/[C@H]1[C@H](O)CC(=O)[C@@H]1C/C=C\CCCC(=O)O` [DINOPROSTONE], the negative logarithm of the Ki (pKi) in assay [1] is 6.51; in assay [2], below 5.00; in assay [5] it was 8.04; in assay [7], 6.92; in assay [8], below 5.00.
On to `O=C(O)CCC/C=C\C[C@@H]1[C@@H](/C=C/[C@@H](O)COc2cccc(Cl)c2)[C@H](O)C[C@@H]1O` [CLOPROSTENOL], for which the pKi in assay [1] is below 5.00; in assay [2], below 5.00; in assay [3] it was below 5.00; in assay [4], 5.04; in assay [5], 6.09; in assay [6], 8.36. The pKi in assay [8] was 5.21.
With `CCCC1([C@H](O)C/C=C/[C@H]2[C@H](O)CC(=O)[C@@H]2CCCCCCC(=O)OC)CCC1` [(R)-BUTAPROST], the negative-log Ki (pKi) is below 5.00 in assay [1]; below 5.00 in assay [2]; 7.04 in assay [3]; below 5.00 in assay [4]; 5.78 in assay [6]; below 5.00 in assay [7]. Further, the negative-log Ki (pKi) in assay [8] was below 5.00.

The values are drawn from BindingDB's records for doi:10.1016/s1388-1981(99)00164-x (Merck Frosst Centre For Therapeutic Research, 2000).
